In patent publication US9133129B2, “Bicyclic compound” (TAKEDA PHARMACEUTICAL COMPANY LIMITED, priority 2011, dated 2015):

Target: T1, human ACC2 (Homo sapiens, UniProt O00763)
T1 construct: made in house; host or cells: SF-9 insect cells, recombinant baculovirus BAC-ACC2 (Nd)
Experiment: ACC2 inhibitory activity, malachite green assay with recombinant ACC2 (Nd)
Assay type: biochemical
Conditions: 1 μM of the test compound; read-out: ACC2 inhibitory rates (%) at 1 μM
Method: The ACC2 inhibitory action of the compound of the present invention was evaluated by the following method.
(1) Cloning of Human ACC2 Gene and Preparation of Recombinant Baculovirus
Human ACC2 gene was cloned by PCR using a human skeletal muscle cDNA library (Clontech) as a template and Primer 1 and Primer 2 shown below. Primer 1 and Primer 2 were prepared by adding SalI, XbaI restriction enzyme recognition sequences based on the information of the base sequence of human ACC2 gene (Genbank Accession U89344).
(§1) PCR was performed using Pyrobest DNA polymerase (TAKARA BIO INC.). The obtained PCR product was cloned to pT7 Blue vector (Novagen) and after confirmation of the base sequence, digested with restriction enzymes SalI and XbaI. The obtained DNA fragment was inserted into pFAST-BacHTa (Invitrogen) digested with restriction enzymes SalI and XbaI to give expression plasmid ACC2/pFAST-BacHTa.
A plasmid for expression of ACC2 without a mitochondrial targeting sequence was prepared by PCR using the expression plasmid as a template, and Primer 3 (SalI restriction enzyme recognition sequence was added) and Primer 4, which are prepared by reference to the information of human ACC2 gene base sequence (Genbank Accession U89344).
as §1, with “Pyrobest-DNA” for “Pyrobest DNA”, “AflII.” for “XbaI.”, “ACC2/pFAST-BacHTa” for “pFAST-BacHTa (Invitrogen)”, “AflII” for “XbaI”, “ACC2mito7/pFAST-BacHTa.” for “ACC2/pFAST-BacHTa.”
Using the expression plasmid ACC2mito7/pFAST-BacHTa and BAC-TO-BAC Baculovirus Expression System (Invitrogen), virus stock BAC-ACC2 of recombinant Baculovirus (N terminal deleted (hereinafter Nd)) was prepared.
(2) Preparation of ACC2 (Nd) Protein
SF-9 cells (Invitrogen) were inoculated to a medium (10 L) for insect cells (Sf-900IISFM medium (Invitrogen) containing 5% fetal bovine serum (Trace), 50 mg/L Gentamicin (Wako), 0.1% Pluronic F-68 (Invitrogen)) at 1.0×10^6 cells/mL, and cultured with shaking in Wave Bioreactor (GE Health Care) at 27° C., 20 rpm, rocking angle 10°, oxygen concentration 30%.
On day 2 of the culture, recombinant Baculovirus BAC-ACC2 (Nd) was added, and the cells were cultured for 3 days. The culture medium was centrifuged at 1000×g for 10 min to give virus-infected cells. The cells were washed with phosphate buffered saline (Invitrogen) and centrifuged under the same conditions. The obtained cells were cryopreserved at −80° C.
The cryopreserved cells were thawed in ice and suspended in 900 mL of 25 mM HEPES buffer (pH 7.5) containing 10% Glycerol, 0.3 M NaCl, 1 mM EDTA, 25 mM Sodium β-Glycerophosphate and 1 mM Sodium Orthovanadate, and supplemented with Complete Protease Inhibitor (Roche). The obtained suspension was homogenized three times in a polytron homogenizer (Kinematica) at 20,000 rpm for 30 sec. The obtained cell disruption solution was clarified by centrifugation at 186000×g for 60 min. To the supernatant was added 5 mL of AF-chelate 650M Ni chelated carrier (TOSOH), and the mixture was rotated at 4° C. for 1 hr, and centrifuged at 1000×g for 5 min, and the carrier was transferred to opened column. The column was washed with 50 mL of buffer A (50 mM HEPES (pH 7.5) containing 0.3 M NaCl), further washed with buffer A containing 20 mM Imidazole, and eluted with buffer A containing 250 mM Imidazole. The eluate was concentrated with Amicon Ultra 15 (Millipore) with a molecular weight cut off of 50K. The obtained concentrate was filtered using gelfiltration column (HiLoad 26/60 Superdex200 prep grade) (GE Health Care) with 50 mM HEPES buffer (pH 7.5) containing 10 mM MgCl2, 2 mM Dithiothreitol, 10 mM Tripotassium Citrate and 0.3 M NaCl to give ACC2 (Nd). The obtained ACC2 (Nd) was cryopreserved at −80° C.
(3) Measurement of ACC2 Inhibitory Activity […]

T1 sequence (O00763 117-2458 limits assumed): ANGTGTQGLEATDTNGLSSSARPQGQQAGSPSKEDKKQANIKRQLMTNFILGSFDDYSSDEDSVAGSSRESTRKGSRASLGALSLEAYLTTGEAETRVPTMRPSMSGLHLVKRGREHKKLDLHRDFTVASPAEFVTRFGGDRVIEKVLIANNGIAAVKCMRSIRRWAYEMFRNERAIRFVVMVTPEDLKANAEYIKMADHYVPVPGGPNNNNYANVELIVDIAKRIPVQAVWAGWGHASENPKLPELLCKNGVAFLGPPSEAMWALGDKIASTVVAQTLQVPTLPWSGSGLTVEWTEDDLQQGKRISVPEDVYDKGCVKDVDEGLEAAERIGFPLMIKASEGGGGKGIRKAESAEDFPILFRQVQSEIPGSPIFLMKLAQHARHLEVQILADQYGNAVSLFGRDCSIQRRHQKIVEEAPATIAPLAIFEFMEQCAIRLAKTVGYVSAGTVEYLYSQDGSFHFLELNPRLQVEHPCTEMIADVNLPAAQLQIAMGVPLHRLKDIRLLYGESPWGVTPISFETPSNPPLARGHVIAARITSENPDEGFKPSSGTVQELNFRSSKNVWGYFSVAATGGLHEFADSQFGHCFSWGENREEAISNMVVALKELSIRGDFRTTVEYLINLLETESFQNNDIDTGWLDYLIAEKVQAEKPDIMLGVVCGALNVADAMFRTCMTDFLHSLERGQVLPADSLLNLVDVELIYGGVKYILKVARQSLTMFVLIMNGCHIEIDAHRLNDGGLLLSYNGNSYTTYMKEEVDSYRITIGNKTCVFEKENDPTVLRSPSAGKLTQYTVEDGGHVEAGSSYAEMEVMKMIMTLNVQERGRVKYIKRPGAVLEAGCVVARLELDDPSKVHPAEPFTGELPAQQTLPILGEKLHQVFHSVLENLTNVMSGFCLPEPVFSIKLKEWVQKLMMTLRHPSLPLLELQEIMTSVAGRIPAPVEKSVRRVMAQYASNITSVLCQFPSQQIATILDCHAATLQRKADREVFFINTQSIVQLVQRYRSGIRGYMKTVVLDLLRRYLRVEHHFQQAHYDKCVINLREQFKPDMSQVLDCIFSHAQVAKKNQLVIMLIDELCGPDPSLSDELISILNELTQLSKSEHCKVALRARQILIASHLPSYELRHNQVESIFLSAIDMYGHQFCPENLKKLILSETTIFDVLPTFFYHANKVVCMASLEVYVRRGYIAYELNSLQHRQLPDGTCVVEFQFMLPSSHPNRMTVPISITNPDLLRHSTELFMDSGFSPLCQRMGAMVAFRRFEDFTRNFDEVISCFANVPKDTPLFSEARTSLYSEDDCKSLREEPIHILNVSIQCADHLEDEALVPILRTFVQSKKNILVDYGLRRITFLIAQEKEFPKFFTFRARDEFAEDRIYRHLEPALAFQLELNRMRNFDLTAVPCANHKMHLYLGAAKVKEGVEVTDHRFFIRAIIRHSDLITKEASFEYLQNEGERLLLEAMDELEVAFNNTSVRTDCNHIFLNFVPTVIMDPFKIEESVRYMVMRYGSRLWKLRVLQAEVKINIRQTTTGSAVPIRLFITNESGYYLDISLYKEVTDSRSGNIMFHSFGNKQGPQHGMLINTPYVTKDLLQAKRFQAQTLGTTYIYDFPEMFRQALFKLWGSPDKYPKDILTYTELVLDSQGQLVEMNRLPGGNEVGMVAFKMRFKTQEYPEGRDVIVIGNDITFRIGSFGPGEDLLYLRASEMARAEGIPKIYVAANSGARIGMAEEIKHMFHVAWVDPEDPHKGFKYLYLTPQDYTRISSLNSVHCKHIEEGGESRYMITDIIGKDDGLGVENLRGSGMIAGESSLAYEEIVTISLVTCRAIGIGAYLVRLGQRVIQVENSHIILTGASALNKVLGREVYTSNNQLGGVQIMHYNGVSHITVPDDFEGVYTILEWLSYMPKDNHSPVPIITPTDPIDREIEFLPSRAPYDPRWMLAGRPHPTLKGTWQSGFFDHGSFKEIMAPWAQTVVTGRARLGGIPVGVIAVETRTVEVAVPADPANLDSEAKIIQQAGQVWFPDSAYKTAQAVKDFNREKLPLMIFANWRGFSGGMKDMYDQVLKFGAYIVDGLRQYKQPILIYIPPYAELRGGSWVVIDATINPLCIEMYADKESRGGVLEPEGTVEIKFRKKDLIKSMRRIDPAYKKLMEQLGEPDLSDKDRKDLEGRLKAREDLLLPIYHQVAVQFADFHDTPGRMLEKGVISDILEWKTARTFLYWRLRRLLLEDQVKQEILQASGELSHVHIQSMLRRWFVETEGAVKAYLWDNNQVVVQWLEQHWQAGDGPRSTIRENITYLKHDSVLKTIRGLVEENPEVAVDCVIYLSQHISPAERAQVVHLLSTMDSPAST

Question: With `CC(=O)N[C@@H](C)COc1cc2oc(-c3ccc(OC[C@H]4CC4(F)F)c(F)c3)nc2cn1` [Example 69, N-((2S)-1-((2-(4-(((1R)-2,2-difluorocyclopropyl)methoxy)-3-fluorophenyl) [1,3]oxazolo[4,5-c]pyridin-6-yl)oxy)propan-2-yl)acetamide] as the molecule, how does the inhibition at 1 µM read?
Answer: Its inhibition at 1 µM is 98%.

Question: Which inhibition at 1 µM does the source give for `COc1cc(-c2nc3cnc(OC[C@H](C)NC(C)=O)cc3o2)cc(F)c1OCC1CC1` [Example 62, N-((2S)-1-((2-(4-(cyclopropylmethoxy)-3-fluoro-5-methoxyphenyl) [1,3]oxazolo[4,5-c]pyridin-6-yl)oxy)propan-2-yl)acetamide] here?
Answer: The inhibition at 1 µM was 90%.

Same assay, conditions: 10 μM of the test compound; 10 µM

Question: For `CC(=O)NC(C)COC1CCc2oc(-c3ccc(OCC4CC4)c(F)c3)nc2C1` (stereo not shown) [Example 51d, N-(1-((2-(4-(cyclopropylmethoxy)-3-fluorophenyl)-4,5,6,7-tetrahydro-1,3-benzoxazol-5-yl)oxy)propan-2-yl)acetamide], which “ACC2 inhibitory rates (%) at 10 μM” value is on record?
Answer: The value was 95%.

Question: Which “ACC2 inhibitory rates (%) at 10 μM” value does the source give for `CC(=O)N[C@@H](C)COc1cc2oc(-c3cc(F)c(OCC4CC4(F)F)c(F)c3)nc2cn1` (stereo partly drawn) [Example 86, N-((2S)-1-((2-(4-((2,2-difluorocyclopropyl)methoxy)-3,5-difluorophenyl)[1,3]oxazolo[4,5-c]pyridin-6-yl)oxy)propan-2-yl)acetamide] here?
Answer: The value was 89%.

Same assay, conditions: 10 μM of the test compound; read-out: ACC2 inhibitory rates (%) at 10 μM

Question: Which inhibition at 10 µM does the source give for `CC(=O)N[C@@H](C)COc1cc2oc(-c3ncc(OCC4CC4)cc3C)nc2cn1` [Example 120, N-((2S)-1-((2-(5-(cyclopropylmethoxy)-3-methylpyridin-2-yl)[1,3]oxazolo[4,5-c]pyridin-6-yl)oxy)propan-2-yl)acetamide] here?
Answer: The inhibition at 10 µM was 96%.

Question: For `CC(=O)N[C@@H](C)COc1ccc2nc(-c3ccc(OCC4CC4)c(F)c3)oc2c1` [Example 1, N-((2S)-1-((2-(4-(cyclopropylmethoxy)-3-fluorophenyl)-1,3-benzoxazol-6-yl)oxy)propan-2-yl)acetamide], which inhibition at 10 µM is on record?
Answer: The inhibition at 10 µM was 95%.

Question: With `CC(=O)N[C@@H](C)COc1cc2oc(-c3cc(F)c(OCC4CC4)cc3F)nc2cn1` [Example 48, N-((2S)-1-((2-(4-(cyclopropylmethoxy)-2,5-difluorophenyl)[1,3]oxazolo[4,5-c]pyridin-6-yl)oxy)propan-2-yl)acetamide] as the molecule, how does the inhibition at 10 µM read?
Answer: The inhibition at 10 µM was 85%.

Question: With `CC(=O)NC(C)COC1CCc2oc(-c3ccc(OCC4CC4)c(F)c3)nc2C1` (stereo not shown) [Example 51c, N-(1-((2-(4-(cyclopropylmethoxy)-3-fluorophenyl)-4,5,6,7-tetrahydro-1,3-benzoxazol-5-yl)oxy)propan-2-yl)acetamide] as the molecule, how does the inhibition at 10 µM read?
Answer: The inhibition at 10 µM was 84%.

Question: With `CC(=O)N[C@@H](C)COc1cc2oc(-c3cc(F)c(OCC4CC4)c(F)c3)nc2cn1` [Example 47, N-((2S)-1-((2-(4-(cyclopropylmethoxy)-3,5-difluorophenyl)[1,3]oxazolo[4,5-c]pyridin-6-yl)oxy)propan-2-yl)acetamide] as the molecule, how does the inhibition at 10 µM read?
Answer: The inhibition at 10 µM was 91%.

Question: For `CC(=O)N[C@@H](C)COc1ncc2nc(-c3cc(F)c(OC[C@H]4CC4(F)F)c(F)c3)oc2n1` [Example 167, N-((2S)-1-((2-(4-(((1R)-2,2-difluorocyclopropyl)methoxy)-3,5-difluorophenyl)[1,3]oxazolo[5,4-d]pyrimidin-5-yl)oxy)propan-2-yl)acetamide], which inhibition at 10 µM is on record?
Answer: The inhibition at 10 µM was 81%.

Question: With `CC(=O)N[C@@H](C)COc1cc2oc(-c3ccc(OCC4CC4)cc3C)nc2cn1` [Example 117, N-((2S)-1-((2-(4-(cyclopropylmethoxy)-2-methylphenyl)[1,3]oxazolo[4,5-c]pyridin-6-yl)oxy)propan-2-yl)acetamide] as the molecule, how does the inhibition at 10 µM read?
Answer: The inhibition at 10 µM was 101%.

Question: With `CC(=O)N[C@@H](C)COc1cc(F)c2nc(-c3ccc(OCC4CC4)c(F)c3)oc2c1` [Example 43, N-((2S)-1-((2-(4-(cyclopropylmethoxy)-3-fluorophenyl)-4-fluoro-1,3-benzoxazol-6-yl)oxy)propan-2-yl)acetamide] as the molecule, how does the inhibition at 10 µM read?
Answer: The inhibition at 10 µM was 92%.

Question: Which inhibition at 10 µM does the source give for `CC(=O)N[C@@H](C)COc1cc2oc(-c3ccc(OCC4(C)CC4(F)F)c(F)c3)nc2cn1` (stereo partly drawn) [Example 159, N-((2S)-1-((2-(4-((2,2-difluoro-1-methylcyclopropyl)methoxy)-3-fluorophenyl)[1,3]oxazolo[4,5-c]pyridin-6-yl)oxy)propan-2-yl)acetamide] here?
Answer: The inhibition at 10 µM was 80%.

Question: With `CC(=O)N[C@@H](C)COc1ccc2nc(-c3ccc(OCC4CC4(F)F)c(F)c3)oc2c1F` (stereo partly drawn) [Example 80, N-((2S)-1-((2-(4-((2,2-difluorocyclopropyl)methoxy)-3-fluorophenyl)-7-fluoro-1,3-benzoxazol-6-yl)oxy)propan-2-yl)acetamide] as the molecule, how does the inhibition at 10 µM read?
Answer: The inhibition at 10 µM was 89%.

Question: With `CC(=O)N[C@@H](C)COc1cc2oc(-c3cc(F)c(OCC4CC4(F)F)c(F)c3)nc2cn1` (stereo partly drawn) [Example 131, N-((2S)-1-((2-(4-((2,2-difluorocyclopropyl)methoxy)-3,5-difluorophenyl)[1,3]oxazolo[4,5-c]pyridin-6-yl)oxy)propan-2-yl)acetamide] as the molecule, how does the inhibition at 10 µM read?
Answer: The inhibition at 10 µM was 96%.

Question: With `CC(=O)N[C@@H](C)COc1cc2oc(-c3ncc(OC[C@H]4CC4(F)F)cc3Cl)nc2cn1` [Example 163, N-((2S)-1-((2-(3-chloro-5-(((1R)-2,2-difluorocyclopropyl)methoxy)pyridin-2-yl)[1,3]oxazolo[4,5-c]pyridin-6-yl)oxy)propan-2-yl)acetamide] as the molecule, how does the inhibition at 10 µM read?
Answer: Its inhibition at 10 µM is 93%.

Question: Which inhibition at 10 µM does the source give for `CC(=O)N[C@@H](C)COc1cc2oc(-c3cnc(OCC4CC4)cc3C)nc2cn1` [Example 122, N-((2S)-1-((2-(6-(cyclopropylmethoxy)-4-methylpyridin-3-yl)[1,3]oxazolo[4,5-c]pyridin-6-yl)oxy)propan-2-yl)acetamide] here?
Answer: The inhibition at 10 µM was 84%.

Question: Which inhibition at 10 µM does the source give for `C[C@@H](COc1ccc2nc(-c3ccc(OCC4CC4)c(F)c3)oc2c1)NC(=O)N(C)C` [Example 10, 3-((2S)-1-((2-(4-(cyclopropylmethoxy)-3-fluorophenyl)-1,3-benzoxazol-6-yl)oxy)propan-2-yl)-1,1-dimethylurea] here?
Answer: The inhibition at 10 µM was 91%.

Question: With `CC(=O)N[C@@H](C)COc1cc2oc(-c3ccc(OCC4CC4(F)F)c(F)c3)nc2cn1` (stereo partly drawn) [Example 49, N-((2S)-1-((2-(4-((2,2-difluorocyclopropyl)methoxy)-3-fluorophenyl)[1,3]oxazolo[4,5-c]pyridin-6-yl)oxy)propan-2-yl)acetamide] as the molecule, how does the inhibition at 10 µM read?
Answer: The inhibition at 10 µM was 94%.

Question: For `CC(=O)N[C@@H](C)COc1cc2oc(-c3cnc(OCC4CC4)c(Cl)c3)nc2cn1` [Example 35, N-((2S)-1-((2-(5-chloro-6-(cyclopropylmethoxy)pyridin-3-yl)[1,3]oxazolo[4,5-c]pyridin-6-yl)oxy)propan-2-yl)acetamide], which inhibition at 10 µM is on record?
Answer: Its inhibition at 10 µM is 83%.

Question: Which inhibition at 10 µM does the source give for `CC(=O)N[C@@H](C)COc1ncc2nc(-c3ccc(OCC4CC4(F)F)cc3)oc2n1` (stereo partly drawn) [Example 136, N-((2S)-1-((2-(4-((2,2-difluorocyclopropyl)methoxy)phenyl) [1,3]oxazolo[5,4-d]pyrimidin-5-yl)oxy)propan-2-yl)acetamide] here?
Answer: The inhibition at 10 µM was 84%.

Test system: not given
Experiment: not given
Conditions: not given

Question: Which melting point does the source give for `CC(=O)N[C@@H](C)COc1ccc2nc(-c3ccc(OCC4CC4)c(F)c3)oc2c1` [Example 1, N-((2S)-1-((2-(4-(cyclopropylmethoxy)-3-fluorophenyl)-1,3-benzoxazol-6-yl)oxy)propan-2-yl)acetamide] here?
Answer: The melting point was 174 °C.

Question: With `CC(=O)N[C@@H](C)COc1cc2oc(-c3cc(F)c(OCC4CC4)cc3F)nc2cn1` [Example 48, N-((2S)-1-((2-(4-(cyclopropylmethoxy)-2,5-difluorophenyl)[1,3]oxazolo[4,5-c]pyridin-6-yl)oxy)propan-2-yl)acetamide] as the molecule, how does the melting point read?
Answer: The melting point was 199.8 to 199.9 °C.

Question: With `COc1cc(-c2nc3cnc(OC[C@H](C)NC(C)=O)cc3o2)cc(F)c1OCC1CC1` [Example 62, N-((2S)-1-((2-(4-(cyclopropylmethoxy)-3-fluoro-5-methoxyphenyl) [1,3]oxazolo[4,5-c]pyridin-6-yl)oxy)propan-2-yl)acetamide] as the molecule, how does the melting point read?
Answer: The melting point was 162.9 to 163 °C.

Question: With `CC(=O)N[C@@H](C)COc1ccc2nc(-c3ccc(OCC4CC4)c(Cl)c3)oc2c1` [Example 29, N-((2S)-1-((2-(3-chloro-4-(cyclopropylmethoxy)phenyl)-1,3-benzoxazol-6-yl)oxy)propan-2-yl)acetamide] as the molecule, how does the melting point read?
Answer: Its melting point is 156 to 159 °C.
